Measurements: PMC3268023, “Simple Preparation of Pacific Cod Trypsin for Enzymatic Peptide Synthesis” (Journal of Amino Acids, 2011)
Where a name gives a salt, the structure may show the parent alone.

Columns and labels:
[1] = system: Pacific cod trypsin (PcT); experiment: inverse substrate hydrolysis, absorbance at […] nm, Lineweaver-Burk; type: biochemical, Gadus macrocephalus; conditions: 50 mM Tris-HCl pH 8.0, 10 mM CaCl2, 30°C, substrate in DMSO (10 of 200 μL)
[2] = system: Pacific cod trypsin (PcT); experiment: p-nitroaniline release at […] nm, Lineweaver-Burk; type: biochemical, Gadus macrocephalus; conditions: 50 mM Tris-HCl pH 8.0, 10 mM CaCl2, 30°C, substrate in DMSO (10 of 200 μL)

SMILES	Km [1]	Km [2]
C[C@H](NC(=O)OC(C)(C)C)C(=O)Oc1ccc(C(=N)N)cc1 [5a, N-(tert-butoxycarbonyl)-L-alanine p-amidinophenyl esters]	1.5 µM	
N=C(N)NCCC[C@H](NC(=O)c1ccccc1)C(=O)Nc1ccc([N+](=O)[O-])cc1 [BAPA, N-benzoyl-L-arginine p-nitroanilide hydrochloride]		37 µM
